Consider three molecules from US11066384B2, “Crystalline forms of ARN-509, preparation method and use thereof” (Crystal Pharmaceutical (Suzhou) Co., Ltd., priority 2018, dated 2021).

The conditions of data set [1]: low solubility and high permeability; cited from earlier work.
A further data set concerns prostate cancer. The conditions noted are these: clinical trials; cited from earlier work.
Data set [2] can be described thus: Kinetic solubility of Form CS8, Form A and Form B in pH 1.0-6.8 media (HPLC). It is filed as physicochemical. As to conditions: for Solubility relative to Form A of the prior art / Solubility relative to Form B of the prior art: 15 minutes. The protocol:
The HPLC method parameters for solubility test in the present disclosure are as follows:
1. Column: Waters XBridge C18 150×4.6 mm, 5 μm
2. Mobile Phase: A: 0.1% TFA in H2O • B: 0.1% TFA in Acetonitrile
4. Injection Volume: 5 μL
5. Detection wavelength: 242 nm
6. Column Temperature: 40° C.
Different parts of the human body have different acidity (pH 1.0-8.0). The pH in stomach is 1.0-2.0, and the pH in the small intestine is 4.0-7.0. The stomach and small intestine are the key organs for drug dissolution and absorption, so measuring the dynamic solubility of a drug in a medium with pH 1.0-7.0 plays an important role in predicting the in vivo bioavailability.
About 20 mg of Form CS8, Form A and Form B of the prior art were suspended into 2.0 mL of 0.1 mol/L HCl aqueous solution (pH=1.0), 2.0 mL of acetic acid buffer solution (PH=4.5) and 2.0 mL of phosphate buffer solution (pH=6.8) to make suspensions. After equilibrated for 15 minutes, 30 minutes, and 1 hour, concentrations (μg/mL) of the saturated solutions were measured by HPLC.

The nature of data set [3]: Storage stability of Form CS8 under long-term and accelerated conditions (XRPD, HPLC). It is filed as physicochemical. As to conditions: for Solid form after storage / Purity after storage / Chemical purity during storage: 6 months; for Purity after storage: initial purity 99.96%; for Time for which the form does not change / keeps stable on storage / Chemical purity during storage: drug substance. How it is done:
The HPLC method parameters for purity test in the present disclosure are as follows: Approximately 30 mg of Form CS8 was stored under 25° C./60% RH and 40° C./75% RH in open or close dishes. Crystalline form and chemical impurity were checked by XRPD and HPLC, respectively. XRPD pattern overlay of Form CS8 of the present disclosure before and after being stored under 25° C./60% RH are depicted in FIG. 13. XRPD pattern overlay of Form CS8 of the present disclosure before and after being stored under 40° C./75% RH are depicted in FIG. 14.

Data set [4] in a line: Storage stability of Form CS8 under stress condition (XRPD). The class given is physicochemical. The conditions noted are these: 60° C./75% RH. How it is done:
Approximately 30 mg of Form CS8 was stored under 60° C./75% RH in open or close dishes. Crystalline form change of Form CS8 was tested by XRPD.

Data set [5] is described as follows: Mechanical stability: tableting under different pressures (XRPD). It is filed as physicochemical. An excerpt:
A certain amount of Form CS8 was compressed into pellets under different pressures with suitable tableting die. Crystalline form before and after tableting were checked by XRPD. The test results are shown in Table 14, XRPD pattern overlay is depicted in FIG. 16.

Data set [6] can be described thus: Mechanical stability: manual grinding for 5 minutes (XRPD). The class given is physicochemical. As to conditions: ground manually for 5 minutes in a mortar. How it is done:
Form CS8, Form A and Form B of the prior art were ground manually for 5 minutes in a mortar, XRPD patterns were collected before and after gridding. The XRPD pattern overlay of Form CS8, Form A and Form B of the prior art are depicted in FIG. 17, FIG. 18 and FIG. 19.

Data set [7] is described as follows: Particle size distribution (laser particle size analyzer). The conditions noted are these: Isopar G containing 0.2% lecithin. It is filed as physicochemical. The protocol:
The particle size distribution data in the present disclosure were acquired by an […] laser particle size analyzer of Microtrac. Microtrac […] is equipped with an SDC (Sample Delivery Controller). The test is carried out in wet mode, and the dispersion medium is Isopar G. The laser particle size analyzer parameters are as follows: [table] Approximately 20 mg of Form CS8, Form A and Form B of the prior art were added into 10 mL of Isopar G (containing 0.2% lecithin). The mixture was mixed thoroughly and transferred into the SDC. The measurement was started when the sample amount indicator is in appropriate position. The average particle diameter calculated by volume, the diameter at which 10% mass is comprised of smaller particles (D10), the diameter at which 50% mass is comprised of smaller particles (D50) and the diameter at which 90% mass is comprised of smaller particles (D90) were obtained in particle size distribution test.

A short description of data set [8]: Adhesiveness: material sticking to the punch. The class given is physicochemical. As to conditions: 30 mg, φ8 mm round tooling, 10 KN, held 30 s. The protocol: Approximately 30 mg of Form CS8, Form A and Form B of the prior art were weighed and then added into the dies of φ8 mm round tooling, compressed at 10 KN and held for 30 s. The punch was weighed and amount of material sticking to the punch was calculated. The compression was repeated twice and the cumulative amount, maximum amount and average amount of material sticking to the punch during compression process were recorded.

The nature of data set [9]: Compressibility: tensile strength of compacts. It is filed as physicochemical. As to conditions: 80 mg, φ6 mm round tooling, 10 KN. The protocol: 80 mg of Form CS8, Form A and Form B of the prior art were weighed and added into the dies of φ6 mm round tooling, compressed at 10 KN manually, then stored at room temperature for 24 h until complete elastic recovery. Hardness (H) was tested with an Intelligent Tablet Hardness Tester. Diameter (D) and thickness (L) were tested with a caliper. Tensile strength of the powder was calculated with the following formula: T=2H/πDL. Under a certain force, the greater the tensile strength, the better the compressibility.

[10] abbreviates: pH=4.5 acetic acid buffer solution.
[11] abbreviates: pH=6.8 phosphate buffer solution.

On to `CNC(=O)c1ccc(N2C(=S)N(c3cnc(C#N)c(C(F)(F)F)c3)C(=O)C23CCC3)cc1F` [ARN-509, 4-[7-(6-cyano-5-trifluoromethylpyridin-3-yl)-8-oxo-6-thioxo-5,7-diazaspiro[3.4]oct-5-yl]-2-fluoro-N-methylbenzamide], for which the BCS class result in data set [1] is “BCS II”.
As to `CNC(=O)c1ccc(N2C(=S)N(c3ccc(C#N)c(C(F)(F)F)c3)C(=O)C2(C)C)cc1F` [Enzalutamide], the “Share of patients in whom the drug is effective” value in the data set on prostate cancer is reported as “about 70%”.
Consider `CNC(=O)c1ccc(N2C(=S)N(c3cnc(C#N)c(C(F)(F)F)c3)C(=O)C23CCC3)cc1F` [Form CS8, 4-[7-(6-cyano-5-trifluoromethylpyridin-3-yl)-8-oxo-6-thioxo-5,7-diazaspiro[3.4]oct-5-yl]-2-fluoro-N-methylbenzamide], for which the “Solubility (concentration of saturated solution)” value worked out at 23.6 µg/mL in data set [2] (0.1 mol/L HCl aqueous solution pH=1.0, equilibrated 15 min); 25.1 µg/mL in data set [2] (0.1 mol/L HCl aqueous solution pH=1.0, equilibrated 30 min); 18.7 µg/mL in data set [2] (0.1 mol/L HCl aqueous solution pH=1.0, equilibrated 1 h); 17.7 µg/mL in data set [2] (acetic acid buffer solution pH=4.5, equilibrated 15 min); 10.6 µg/mL in data set [2] (acetic acid buffer solution pH=4.5, equilibrated 30 min); 10.9 µg/mL in data set [2] (acetic acid buffer solution pH=4.5, equilibrated 1 h). Also, the “Solubility (concentration of saturated solution)” value in data set [2] (phosphate buffer solution pH=6.8, equilibrated 15 min) was determined as 22.8 µg/mL; in data set [2] (phosphate buffer solution pH=6.8, equilibrated 30 min), 18.9 µg/mL; in data set [2] (phosphate buffer solution pH=6.8, equilibrated 1 h) it was 20.6 µg/mL. For the same molecule, the “Solubility relative to Form A of the prior art” value in [2] (pH=1.0 HCl aqueous solution) was found to be 3.2 times; in data set [2] (setting [10]), 3.0 times; in data set [2] (setting [11]), 3.7 times. Besides, the “Solubility relative to Form B of the prior art” value in data set [2] (pH=1.0 HCl aqueous solution) worked out at 19.7 times; in data set [2] (setting [10]), 16.1 times; in data set [2] (setting [11]) it was 19.0 times. Moreover, the “Solid form after storage” value in [3] (25° C./60% RH (closed)) is reported as “From CS8”; in data set [3] (25° C./60% RH (open)) it was “From CS8”; in data set [3] (40° C./75% RH (closed)), “From CS8”; in data set [3] (40° C./75% RH (open)) it was “From CS8”; in [4] (container open or close, 2 weeks), “Form CS8”. Besides, the Purity after storage is on record as 99.96% in [3] (25° C./60% RH (closed)), 99.96% in [3] (25° C./60% RH (open)), 99.95% in data set [3] (40° C./75% RH (closed)) and 99.95% in data set [3] (40° C./75% RH (open)). The “Time for which the form does not change / keeps stable on storage” value in data set [3] (25° C./60% RH) was “at least 6 months”; in data set [3] (40° C./75% RH) it was “at least 6 months”; in data set [4], “at least 2 weeks”. Also, the “Chemical purity during storage” value in data set [3] (25° C./60% RH) and in data set [3] (40° C./75% RH) was “above 99.9%” throughout. Besides, the “Crystalline form after tableting” value in data set [5] (pressure 3 kN), in data set [5] (pressure 7 kN) and in data set [5] (pressure 14 kN) was “Form CS8” each time. In data set [6], the “Crystalline form/crystallinity after grinding” value is reported as “doesn't change after grinding”. In addition, the D10 in [7] is reported as 48.60 μm. Also, in data set [7], the D50 is given as 100.8 μm. The molecule also displayed a D90 in data set [7] of 164.9 μm. Also, in [7], the “MV (average particle diameter calculated by volume)” value is listed as 104.7 μm. Moreover, the “Average amount of material sticking to the punch” value in [8] was found to be 0.08 mg. In addition, the “Maximum amount of material sticking to the punch” value in [8] is 0.11 mg. This molecule gave a Diameter in [9] (after 24 h at room temperature) of 6.05 mm. Further, the Hardness in data set [9] (after 24 h at room temperature) is listed as 14.6 N. Further, in data set [9] (after 24 h at room temperature), the Thickness is recorded as 2.19 mm. The Tensile strength in data set [9] (T=2H/πDL) amounted to 0.70 MPa.
